Measured values from patent EP4786487A1, “PEPTIDE” (Peptidream Inc, priority 2023, dated 2025).
Where two headings read alike, the source gives them in different places. Starred links: 1 amine or outer side, 2 acyl side, 3 side chain; linkers in the order of their positions; H or OH if unused. Positions of bridges follow the written chain, without caps; N, C: chain ends. Non-standard residues stand in square brackets, D forms with d. Residues, ends and D or L forms follow the SMILES beside them. *: point of attachment. X13 = O=C(O)c1ccc(-n2cc(C[C@H](N[*:1])C(=O)[*:2])c3ccccc32)cc1; X16 = O=C([C@H](Cc1c[nH]c2c(-c3cccc(Cl)c3)cccc12)N[*:1])[*:2]; X6 = CS(=O)(=O)c1ccc(-c2ccc(C[C@H](N[*:1])C(=O)[*:2])cc2)cc1; X8 = COc1ccc(-n2cc(C[C@H](N[*:1])C(=O)[*:2])c3ccccc32)cc1; X3 = O=C(O)COc1ccccc1-c1ccc(C[C@H](N[*:1])C(=O)[*:2])cc1; Phe(3-OCH2COOH) = N[C@@H](Cc1cccc(OCC(=O)O)c1)C(=O)O; Trp(1-Ph) = N[C@@H](Cc1cn(-c2ccccc2)c2ccccc12)C(=O)O; NMePhe(4-CH2NH2) = CN[C@@H](Cc1ccc(CN)cc1)C(=O)O; Trp(6-OH) = N[C@@H](Cc1c[nH]c2cc(O)ccc12)C(=O)O; Phe(4-COOH) = N[C@@H](Cc1ccc(C(=O)O)cc1)C(=O)O; Gly(decyl) = CCCCCCCCCC[C@H](N)C(=O)O; Gly(N(CH2)3COOH) = O=C(O)CCCNCC(=O)O; Gly(octyl) = CCCCCCCC[C@H](N)C(=O)O; X1 = CCCCCCC[C@H](N[*:1])C(=O)[*:2]; Gly(N-(CH2)3OMe) = COCCCNCC(=O)O; NMeF = CN[C@@H](Cc1ccccc1)C(=O)O; NMeE = CN[C@@H](CCC(=O)O)C(=O)O; NMeA = CN[C@@H](C)C(=O)O; X9 = NC(=O)CC1CCN(*)CC1; Sar = CNCC(=O)O

Legend:
[1] = target: T1, Myostatin (Homo sapiens, UniProt O14793); experiment: HepG2 reporter gene assay, Evaluation Procedure (2): 2-concentrations assay, myostatin inhibition; type: cell-based
T1 construct: active myostatin (also called mature myostatin) is a homodimer consisting of two C-terminal growth factor domains; purchased R&D systems 788-G8/CF
T1 sequence (O14793 267-375): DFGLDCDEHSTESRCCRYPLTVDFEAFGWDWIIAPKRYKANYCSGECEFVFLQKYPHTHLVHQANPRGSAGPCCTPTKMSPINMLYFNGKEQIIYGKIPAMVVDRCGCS
Procedure, shortened: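 HepG2 cells (HB-8065, ATCC) carrying the transfected pGL3(CAGA)12-luc reporter plasmid were treated with myostatin (788-G8/CF, R&D systems) at a final concentration of 10 ng/mL plus peptide and incubated at 37°C, 5% CO2 for 20 to 24 hours. Luminescence was read after adding PBS mixed 1:1 with One-Glo substrate, and inhibition rate was calculated.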

[2] = target: T2, GDF-11 (Homo sapiens, UniProt O95390); experiment: HepG2 reporter gene assay, Evaluation Procedure (2): 2-concentrations assay, GDF-11 inhibition; type: cell-based
T2 construct: purchased R&D systems 1958-GD-G8/CF
T2 sequence (O95390 299-407): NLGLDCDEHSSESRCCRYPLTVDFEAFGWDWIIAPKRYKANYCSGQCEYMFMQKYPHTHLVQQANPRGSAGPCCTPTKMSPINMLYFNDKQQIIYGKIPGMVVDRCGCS
Procedure, shortened: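 HepG2 cells carrying the transfected pGL3(CAGA)12-luc reporter, a pGL3 vector with luciferase placed downstream of 12 CAGA repeats, were stimulated with GDF-11 at a final 10 ng/mL together with test peptide. Blank wells received no GDF-11 and no peptide. Plates were incubated 20 to 24 hours at 37°C with 5% CO2. Luminescence from One-Glo substrate was read to calculate percent inhibition.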

[3] = Table 7-3/7-4, myostatin 10 ng/mL, peptide at the higher of the 2 concentrations, HepG2, read-out: inhibition rate (myostatin inhibition assay)
[4] = Table 7-3/7-4, myostatin 10 ng/mL, peptide at the lower of the 2 concentrations, HepG2, read-out: inhibition rate (myostatin inhibition assay)
[5] = HepG2, first GDF-11 column of Table 7-3/7-4, GDF-11 10 ng/mL, peptide at the lower of the 2 concentrations, read-out: inhibition rate (GDF-11 inhibition assay)
[6] = HepG2, second GDF-11 column of Table 7-3/7-4, GDF-11 10 ng/mL, peptide at the higher of the 2 concentrations, read-out: inhibition rate (GDF-11 inhibition assay)
[7] = HepG2, read-out: inhibition rate (myostatin inhibition assay)
[8] = HepG2, read-out: inhibition rate (GDF-11 inhibition assay), Table 7-3/7-4, GDF-11 10 ng/mL, peptide at the higher of the 2 concentrations
[9] = HepG2, read-out: inhibition rate (GDF-11 inhibition assay), Table 7-3/7-4, GDF-11 10 ng/mL, peptide at the lower of the 2 concentrations

Row | inhibition at 0.1 µM [1, 3] | inhibition at 0.03 µM [1, 4] | inhibition [2, 5] | inhibition [2, 6] | Compound | inhibition at 0.03 µM [1, 7] | inhibition at 0.1 µM [1, 7] | inhibition [2, 8] | inhibition [2, 9]
1 | 100% | 100% | 0% | 8% | CCCCCCCCCC[C@@H]1NC(=O)[C@H](Cc2ccccc2)N(C)C(=O)[C@H](CCCNC(=N)N)NC(=O)[C@H](Cc2ccc(C(=O)O)cc2)NC(=O)[C@H](Cc2cccc(OCC(=O)O)c2)NC(=O)[C@H]2CCCN2C(=O)[C@H]([C@@H](C)CC)NC(=O)[C@H](Cc2ccccc2)N(C)C(=O)[C@H](Cc2ccc(O)cc2)NC(=O)[C@H](Cc2c[nH]c3ccccc23)NC(=O)[C@H](C)NC(=O)[C@H](C)NC(=O)CSC[C@H](C(=O)N2CCC(CC(N)=O)CC2)NC(=O)[C@H](Cc2ccccc2)N(C)C(=O)[C@H](CCC(=O)O)N(C)C1=O [Myostatin_99_v347] ({CH2CO}-AAWY[NMeF]I[dP][Phe(3-OCH2COOH)][Phe(4-COOH)]R[NMeF][Gly(decyl)][NMeE][NMeF][dC]-X9; thioether N-15) |  |  |  | 
2 |  |  |  |  | CCCCCCC[C@@H]1NC(=O)[C@H](Cc2ccccc2)N(C)C(=O)[C@H](CCCNC(=N)N)NC(=O)[C@H](Cc2ccc(C(=O)O)cc2)NC(=O)[C@H](Cc2cccc(OCC(=O)O)c2)NC(=O)[C@H](C)N(C)C(=O)[C@H]([C@@H](C)CC)NC(=O)[C@H](Cc2ccccc2)N(C)C(=O)[C@H](Cc2ccc(O)cc2)NC(=O)[C@H](Cc2ccc(-c3ccc(S(C)(=O)=O)cc3)cc2)NC(=O)[C@H](C)NC(=O)CN(CCCC(=O)O)C(=O)CSC[C@H](C(=O)O)NC(=O)[C@H](Cc2ccccc2)N(C)C(=O)[C@H](C)N(C)C1=O [Myostatin_99_v370] ({CH2CO}-[Gly(N(CH2)3COOH)]A[X6]Y[NMeF]I[NMeA][Phe(3-OCH2COOH)][Phe(4-COOH)]R[NMeF][X1][NMeA][NMeF][dC]-OH; thioether N-15) | 100% | 100% | 0% | 0%
3 |  |  |  |  | CCCCCCC[C@@H]1NC(=O)[C@H](Cc2ccccc2)N(C)C(=O)[C@H](CCCNC(=N)N)NC(=O)[C@H](Cc2ccc(C(=O)O)cc2)NC(=O)[C@H](Cc2ccc(-c3ccccc3OCC(=O)O)cc2)NC(=O)[C@H](C)N(C)C(=O)[C@H]([C@@H](C)CC)NC(=O)[C@H](Cc2ccccc2)N(C)C(=O)[C@H](Cc2ccc(O)cc2)NC(=O)[C@H](Cc2c[nH]c3ccccc23)NC(=O)[C@H](C)NC(=O)CN(CCCC(=O)O)C(=O)CSC[C@H](C(=O)O)NC(=O)[C@H](Cc2ccccc2)N(C)C(=O)[C@H](C)N(C)C1=O [Myostatin_99_v371] ({CH2CO}-[Gly(N(CH2)3COOH)]AWY[NMeF]I[NMeA][X3][Phe(4-COOH)]R[NMeF][X1][NMeA][NMeF][dC]-OH; thioether N-15) | 100% | 100% | 0% | 0%
4 |  |  |  |  | CCCCCCC[C@@H]1NC(=O)[C@H](Cc2ccccc2)N(C)C(=O)[C@H](CCCNC(=N)N)NC(=O)[C@H](Cc2ccc(C(=O)O)cc2)NC(=O)[C@H](Cc2ccc(-c3ccccc3OCC(=O)O)cc2)NC(=O)[C@H](C)N(C)C(=O)[C@H]([C@@H](C)CC)NC(=O)[C@H](Cc2ccccc2)N(C)C(=O)[C@H](Cc2ccc(O)cc2)NC(=O)[C@H](Cc2c[nH]c3cc(O)ccc23)NC(=O)[C@H](C)NC(=O)CN(CCCC(=O)O)C(=O)CSC[C@H](C(=O)O)NC(=O)[C@H](Cc2ccccc2)N(C)C(=O)[C@H](C)N(C)C1=O [Myostatin_99_v373] ({CH2CO}-[Gly(N(CH2)3COOH)]A[Trp(6-OH)]Y[NMeF]I[NMeA][X3][Phe(4-COOH)]R[NMeF][X1][NMeA][NMeF][dC]-OH; thioether N-15) | 100% | 100% | 47% | 0%
5 | 100% | 99% | 0% | 0% | CCCCCCC[C@@H]1NC(=O)[C@H](Cc2ccccc2)N(C)C(=O)[C@H](CCCNC(=N)N)NC(=O)[C@H](Cc2ccc(C(=O)O)cc2)NC(=O)[C@H](Cc2cccc(OCC(=O)O)c2)NC(=O)[C@H](C)N(C)C(=O)[C@H]([C@@H](C)CC)NC(=O)[C@H](Cc2ccccc2)N(C)C(=O)[C@H](Cc2ccc(O)cc2)NC(=O)[C@H](Cc2c[nH]c3c(-c4cccc(Cl)c4)cccc23)NC(=O)[C@H](C)NC(=O)CN(CCCC(=O)O)C(=O)CSC[C@H](C(=O)O)NC(=O)[C@H](Cc2ccccc2)N(C)C(=O)[C@H](C)N(C)C1=O [Myostatin_99_v378] ({CH2CO}-[Gly(N(CH2)3COOH)]A[X16]Y[NMeF]I[NMeA][Phe(3-OCH2COOH)][Phe(4-COOH)]R[NMeF][X1][NMeA][NMeF][dC]-OH; thioether N-15) |  |  |  | 
6 | 100% | 100% | 0% | 0% | CCCCCCC[C@@H]1NC(=O)[C@H](Cc2ccccc2)N(C)C(=O)[C@H](CCCNC(=N)N)NC(=O)[C@H](Cc2ccc(C(=O)O)cc2)NC(=O)[C@H](Cc2cccc(OCC(=O)O)c2)NC(=O)[C@H](C)N(C)C(=O)[C@H]([C@@H](C)CC)NC(=O)[C@H](Cc2ccccc2)N(C)C(=O)[C@H](Cc2ccc(O)cc2)NC(=O)[C@H](Cc2cn(-c3ccc(OC)cc3)c3ccccc23)NC(=O)[C@H](C)NC(=O)CN(CCCC(=O)O)C(=O)CSC[C@H](C(=O)O)NC(=O)[C@H](Cc2ccccc2)N(C)C(=O)[C@H](C)N(C)C1=O [Myostatin_99_v379] ({CH2CO}-[Gly(N(CH2)3COOH)]A[X8]Y[NMeF]I[NMeA][Phe(3-OCH2COOH)][Phe(4-COOH)]R[NMeF][X1][NMeA][NMeF][dC]-OH; thioether N-15) |  |  |  | 
7 | 100% | 100% | 0% | 0% | CCCCCCC[C@@H]1NC(=O)[C@H](Cc2ccccc2)N(C)C(=O)[C@H](CCCNC(=N)N)NC(=O)[C@H](Cc2ccc(C(=O)O)cc2)NC(=O)[C@H](Cc2cccc(OCC(=O)O)c2)NC(=O)[C@H](C)N(C)C(=O)[C@H]([C@@H](C)CC)NC(=O)[C@H](Cc2ccccc2)N(C)C(=O)[C@H](Cc2ccc(O)cc2)NC(=O)[C@H](Cc2cn(-c3ccccc3)c3ccccc23)NC(=O)[C@H](C)NC(=O)CN(CCCC(=O)O)C(=O)CSC[C@H](C(=O)O)NC(=O)[C@H](Cc2ccccc2)N(C)C(=O)[C@H](C)N(C)C1=O [Myostatin_99_v380] ({CH2CO}-[Gly(N(CH2)3COOH)]A[Trp(1-Ph)]Y[NMeF]I[NMeA][Phe(3-OCH2COOH)][Phe(4-COOH)]R[NMeF][X1][NMeA][NMeF][dC]-OH; thioether N-15) |  |  |  | 
8 | 100% | 100% | 0% | 44% | CCCCCCCC[C@@H]1NC(=O)[C@H](Cc2ccccc2)N(C)C(=O)[C@H](CCCNC(=N)N)NC(=O)[C@H](Cc2ccc(C(=O)O)cc2)NC(=O)[C@H](Cc2cccc(OCC(=O)O)c2)NC(=O)CN(C)C(=O)[C@H]([C@@H](C)CC)NC(=O)[C@H](Cc2ccccc2)N(C)C(=O)[C@H](Cc2ccc(O)cc2)NC(=O)[C@H](Cc2c[nH]c3cc(O)ccc23)NC(=O)[C@H](C)NC(=O)CN(CCCOC)C(=O)CSC[C@H](C(N)=O)NC(=O)[C@H](Cc2ccccc2)N(C)C(=O)[C@H](C)N(C)C1=O [Myostatin_99_v414] ({CH2CO}-[Gly(N-(CH2)3OMe)]A[Trp(6-OH)]Y[NMeF]I[Sar][Phe(3-OCH2COOH)][Phe(4-COOH)]R[NMeF][Gly(octyl)][NMeA][NMeF][dC]-NH2; thioether N-15) |  |  |  | 
9 | 100% | 100% | 0% | 0% | CCCCCCC[C@@H]1NC(=O)[C@@H]2Cc3ccc(cc3)CNC(=O)CC[C@@H](C(=O)N[C@@H](C)C(=O)N[C@@H](Cc3cn(-c4ccc(C(=O)O)cc4)c4ccccc34)C(=O)N[C@@H](Cc3ccc(O)cc3)C(=O)N(C)[C@@H](Cc3ccccc3)C(=O)N[C@@H]([C@@H](C)CC)C(=O)N3CCC[C@@H]3C(=O)N[C@@H](Cc3cccc(OCC(=O)O)c3)C(=O)N[C@@H](Cc3ccc(C(=O)O)cc3)C(=O)N[C@@H](CCCNC(=N)N)C(=O)N2C)N(C)C(=O)CSC[C@H](C(=O)O)NC(=O)[C@H](Cc2ccccc2)N(C)C(=O)[C@H](C)N(C)C1=O [Myostatin_99_v423] ({CH2CO}-[NMeE]A[X13]Y[NMeF]I[dP][Phe(3-OCH2COOH)][Phe(4-COOH)]R[NMePhe(4-CH2NH2)][X1][NMeA][NMeF][dC]-OH; lactam 1-11; thioether N-15) |  |  |  | 
